# Data as given in patent publication US20030212254A1, “Use of an anion exchange resin (emp-7) as solid support for peptide synthesis and affinity chromatography” (priority 1999, published 2003).
# Tested on: monoclonal antibody specific for (NANP)3 / recombinant protein containing the repetitive domain (NANP)n interaction
# Test: Inhibition ELISA: inhibition of the monoclonal antibody-recombinant protein interaction
# Type: binding, mouse
# Conditions: 2000 to 3,9 μg/ml peptide or peptide-resin; 2 h at room temperature; absorbance at 492 nm; FIG. 6
# Method: In brief, the designed immunological experiment encompassed the following steps: the purified recombinant protein containing the repetitive domain (NANP)n of the circunsporozoite form of Plasmodium falciparum (v.g. Cell, 70, 1021-1033, [1992]) was added to Elisa's plate (200 ng/well) and maintained overnight at room temperature. After 3 washes with phosphate buffer containing 0,05% Tween-20, the plates were treated at 37° C. with PBS containing 5% disnatured milk and 1% serum bovine albumin. To calculate the degree of interaction of this recombinant protein with its antibody, the plates were treated with a specific monoclonal antibody for the (NANP)3 sequence obtained according to the reference in Science 228, 1436-1440 (1985), in a final concentration of 20 ng/ml. […] After 1 h of incubation at room temperature, the excess of labeled antibody was removed during the washings and the calorimetric reaction with o-phenilenediamine was developed and read at 492 nm. […]
# 100 μl of PBS were added to 2000 μg/ml to 3,9 μg/ml of free peptide (acetyl-NANP)3 or of {[(acetil-NANP)3]4-Eac4-(Lys)2-Lys-DEAE-Sephadex A50}resin. […] The absorbance of solutions was measured at 492 nm and the percentage of inhibition of this interaction antibody-recombinant protein induced by peptide-resin, resin or peptide was calculated according to the equation: […]
substance,measurement,value
acetyl-(NANP)3 [free (acetyl-NANP)3],inhibition of the antibody-recombinant protein interaction,highest inhibition
